Laboratory results as given in patent US20070191227A1, “Use of basic amino acids in copper-containing fungicidal formulations” (priority 2003, published 2007).

Test system: Septoria tritici
Experiment: Growth assay with Septoria tritici as indicator fungus (photometric)
Format: cell-based
Conditions: Zymoseptoria tritici; active ingredient concentration 1 ppm, individual active ingredient
Description: Efficacy of Formulations According to the Invention Comprising Copper and a Further Fungicidal Active Ingredient Against Septoria tritici.
A growth assay was carried out with Septoria tritici as indicator fungus. The fungal growth was measured photometrically by the increase in absorption or light scattering as a function of mycelium density. The data were converted into percent growth inhibition, the absorption of the untreated controls being defined as 0% inhibition and that of a killed spore suspension as reference as 100% inhibition.
The expected efficacies of combinations of active ingredients were determined using Colby's formula (Colby, S. R. “Calculating synergistic and antagonistic responses of herbicide combinations”, Weeds, 15, pp. 20-22, 1967) and compared with the observed efficacies.
Colby's formula: E=x+y−x·y/100 • E expected efficacy, expressed in % of the untreated control, when using the mixture of the active ingredients A and B at the concentrations a and b • x efficacy, expressed in % of the untreated control, when using the active ingredient A at the concentration a
y efficacy, expressed in % of the untreated control, when using the active ingredient B at the concentration b

COC(=O)N(OC)c1ccccc1COc1ccn(-c2ccc(Cl)cc2)n1 [II, Pyraclostrobin]
inhibition at 1 ppm: 73%
